Results reported in ChEMBL document CHEMBL5543145, “Discovery of the First-in-Class G9a/GLP PROTAC Degrader” (J Med Chem, 2024).
Active and inactive are the calls of the source.

What was measured:
[1] = target: T1, von Hippel-Lindau disease tumor suppressor/Histone-lysine N-methyltransferase EHMT2 (Homo sapiens, UniProt Q96KQ7+P40337); test: PROTAC activity at G9a/VHL in human 22Rv1 cells assessed as induction of G9a degradation at 3 uM incubated for 24 hrs by Western blot analysis relative to control; assay type: cell-based
Target sequence in this assay (P40337 whole entry partner): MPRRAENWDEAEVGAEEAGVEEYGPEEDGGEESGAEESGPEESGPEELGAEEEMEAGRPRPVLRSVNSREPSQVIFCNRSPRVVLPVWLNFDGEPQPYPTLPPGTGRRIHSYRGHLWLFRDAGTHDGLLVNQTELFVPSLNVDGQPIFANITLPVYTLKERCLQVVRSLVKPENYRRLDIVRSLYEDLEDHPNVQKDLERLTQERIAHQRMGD
Target sequence in this assay (Q96KQ7 2-1210 limits assumed): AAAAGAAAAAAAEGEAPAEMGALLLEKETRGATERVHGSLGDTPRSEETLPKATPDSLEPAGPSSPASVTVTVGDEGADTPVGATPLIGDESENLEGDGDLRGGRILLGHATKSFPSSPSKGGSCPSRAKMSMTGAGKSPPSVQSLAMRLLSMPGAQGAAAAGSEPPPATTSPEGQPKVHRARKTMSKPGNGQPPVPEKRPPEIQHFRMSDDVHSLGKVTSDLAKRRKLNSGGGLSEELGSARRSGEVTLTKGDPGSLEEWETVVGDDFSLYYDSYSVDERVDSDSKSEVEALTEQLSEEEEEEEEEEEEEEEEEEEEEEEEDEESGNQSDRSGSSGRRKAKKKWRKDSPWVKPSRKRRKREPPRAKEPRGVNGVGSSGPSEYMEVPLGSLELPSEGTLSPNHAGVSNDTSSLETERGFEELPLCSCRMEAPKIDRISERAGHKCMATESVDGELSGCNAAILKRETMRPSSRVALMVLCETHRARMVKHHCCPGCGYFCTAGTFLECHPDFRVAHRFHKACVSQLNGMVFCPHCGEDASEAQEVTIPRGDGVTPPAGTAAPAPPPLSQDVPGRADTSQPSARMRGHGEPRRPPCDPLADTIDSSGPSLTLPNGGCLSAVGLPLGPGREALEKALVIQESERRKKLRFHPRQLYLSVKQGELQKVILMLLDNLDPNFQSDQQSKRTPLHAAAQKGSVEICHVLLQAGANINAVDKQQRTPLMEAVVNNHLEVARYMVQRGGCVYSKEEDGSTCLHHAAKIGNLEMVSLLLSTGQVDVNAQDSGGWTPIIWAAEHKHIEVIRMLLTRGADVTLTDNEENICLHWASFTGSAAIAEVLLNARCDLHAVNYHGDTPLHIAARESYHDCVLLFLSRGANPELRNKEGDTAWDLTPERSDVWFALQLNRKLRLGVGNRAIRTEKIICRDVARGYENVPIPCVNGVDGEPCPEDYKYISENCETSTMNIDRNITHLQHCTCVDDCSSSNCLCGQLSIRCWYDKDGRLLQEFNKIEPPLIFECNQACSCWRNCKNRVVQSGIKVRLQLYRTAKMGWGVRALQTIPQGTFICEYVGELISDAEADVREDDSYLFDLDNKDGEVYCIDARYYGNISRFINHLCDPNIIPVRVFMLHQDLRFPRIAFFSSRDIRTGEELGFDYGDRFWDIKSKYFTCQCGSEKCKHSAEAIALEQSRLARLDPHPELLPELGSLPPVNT

[2] = target: T2, von Hippel-Lindau disease tumor suppressor/Histone-lysine N-methyltransferase EHMT1 (Homo sapiens, UniProt Q9H9B1+P40337); test: PROTAC activity at GLP/VHL in human 22Rv1 cells assessed as induction of GLP degradation at 0.3 uM incubated for 24 hrs by Western blot analysis relative to control; assay type: cell-based
T2 sequence (P40337 whole entry partner): as the sequence (P40337 whole entry partner) above
T2 sequence (Q9H9B1 2-1298 limits assumed): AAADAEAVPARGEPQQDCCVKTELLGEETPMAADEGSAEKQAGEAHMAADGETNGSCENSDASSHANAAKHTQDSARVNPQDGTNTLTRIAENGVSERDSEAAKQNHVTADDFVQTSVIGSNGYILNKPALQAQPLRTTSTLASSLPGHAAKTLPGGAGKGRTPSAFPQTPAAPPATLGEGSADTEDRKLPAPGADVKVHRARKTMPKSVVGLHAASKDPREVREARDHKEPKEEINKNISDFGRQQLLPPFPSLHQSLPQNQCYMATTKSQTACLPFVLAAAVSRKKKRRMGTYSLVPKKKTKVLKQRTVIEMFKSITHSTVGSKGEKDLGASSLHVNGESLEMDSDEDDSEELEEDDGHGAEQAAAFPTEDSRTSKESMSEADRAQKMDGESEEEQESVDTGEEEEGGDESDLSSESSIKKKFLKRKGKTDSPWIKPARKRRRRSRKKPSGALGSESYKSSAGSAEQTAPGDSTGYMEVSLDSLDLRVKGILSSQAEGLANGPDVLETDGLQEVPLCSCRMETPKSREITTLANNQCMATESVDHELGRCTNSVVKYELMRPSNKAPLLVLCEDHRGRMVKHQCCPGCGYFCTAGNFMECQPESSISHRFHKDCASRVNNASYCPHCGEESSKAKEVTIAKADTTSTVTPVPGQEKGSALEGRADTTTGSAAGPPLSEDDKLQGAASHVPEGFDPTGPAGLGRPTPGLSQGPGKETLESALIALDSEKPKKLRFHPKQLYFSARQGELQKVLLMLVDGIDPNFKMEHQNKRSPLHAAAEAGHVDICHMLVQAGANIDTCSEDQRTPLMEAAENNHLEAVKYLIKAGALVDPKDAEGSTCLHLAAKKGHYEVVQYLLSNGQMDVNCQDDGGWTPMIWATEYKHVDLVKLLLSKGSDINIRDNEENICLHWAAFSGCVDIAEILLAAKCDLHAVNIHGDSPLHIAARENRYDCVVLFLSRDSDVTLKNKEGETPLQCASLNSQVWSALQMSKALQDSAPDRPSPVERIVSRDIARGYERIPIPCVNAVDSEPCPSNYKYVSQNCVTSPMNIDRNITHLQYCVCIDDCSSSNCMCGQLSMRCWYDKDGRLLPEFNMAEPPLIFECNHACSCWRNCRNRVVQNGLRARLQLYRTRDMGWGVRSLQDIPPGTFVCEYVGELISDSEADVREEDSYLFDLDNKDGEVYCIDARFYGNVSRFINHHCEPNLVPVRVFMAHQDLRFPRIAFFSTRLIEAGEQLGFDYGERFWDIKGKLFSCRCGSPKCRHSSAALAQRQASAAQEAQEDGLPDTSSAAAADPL

[3] = target: T2, von Hippel-Lindau disease tumor suppressor/Histone-lysine N-methyltransferase EHMT1; test: PROTAC activity at GLP/VHL in human 22Rv1 cells assessed as induction of GLP degradation at 3 uM incubated for 24 hrs by Western blot analysis relative to control; assay type: cell-based
[4] = target: T1, von Hippel-Lindau disease tumor suppressor/Histone-lysine N-methyltransferase EHMT2; test: PROTAC activity at G9a/VHL in human 22Rv1 cells assessed as induction of G9a degradation at 1 uM incubated for 24 hrs by Western blot analysis; assay type: cell-based
Target sequence in this assay (P40337 whole entry partner): as the sequence (P40337 whole entry partner) above
Target sequence in this assay (Q96KQ7 2-1210 limits assumed): as the sequence (Q96KQ7 2-1210 limits assumed) above

[5] = target: T2, von Hippel-Lindau disease tumor suppressor/Histone-lysine N-methyltransferase EHMT1; test: PROTAC activity at GLP/VHL in human 22Rv1 cells assessed as induction of GLP degradation at 1 uM incubated for 24 hrs by Western blot analysis; assay type: cell-based
[6] = system: PNT2; test: Cytotoxicity against human PNT2 cells assessed as growth inhibition measured for 5 days; assay type: toxicity, cell-based; details: pnt2, 120 h, time 5 day
[7] = target: T1, von Hippel-Lindau disease tumor suppressor/Histone-lysine N-methyltransferase EHMT2; test: PROTAC activity at G9a/VHL in human 22Rv1 cells assessed as induction of G9a degradation incubated for 24 hrs by Western blot analysis; assay type: cell-based
[8] = target: T1, von Hippel-Lindau disease tumor suppressor/Histone-lysine N-methyltransferase EHMT2; test: PROTAC activity at G9a/VHL in human 22Rv1 cells assessed as induction of G9a degradation at 3 uM measured at 4 hrs by Western blot analysis; assay type: cell-based
Target sequence in this assay (P40337 whole entry partner): as the sequence (P40337 whole entry partner) above
Target sequence in this assay (Q96KQ7 2-1210 limits assumed): as the sequence (Q96KQ7 2-1210 limits assumed) above

[9] = target: T2, von Hippel-Lindau disease tumor suppressor/Histone-lysine N-methyltransferase EHMT1; test: PROTAC activity at GLP/VHL in human 22Rv1 cells assessed as induction of GLP degradation at 3 uM measured at 24 to 48 hrs by Western blot analysis; assay type: cell-based; details: time 24-48 hrs
[10] = target: T1, von Hippel-Lindau disease tumor suppressor/Histone-lysine N-methyltransferase EHMT2; test: PROTAC activity at G9a/VHL in human 22Rv1 cells assessed as effect on G9a level upto 3 uM measured for 24 hrs by Western blot analysis; assay type: cell-based
Target sequence in this assay (P40337 whole entry partner): as the sequence (P40337 whole entry partner) above
Target sequence in this assay (Q96KQ7 2-1210 limits assumed): as the sequence (Q96KQ7 2-1210 limits assumed) above

[11] = target: T2, von Hippel-Lindau disease tumor suppressor/Histone-lysine N-methyltransferase EHMT1; test: PROTAC activity at GLP/VHL in human 22Rv1 cells assessed as effect on GLP level upto 3 uM measured for 24 hrs by Western blot analysis; assay type: cell-based
[12] = system: CWR22R; test: Inhibition of colony formation in human 22Rv1 cells upto 3 uM incubated for 8 days by ethyl violet staining based analysis; assay type: functional, cell-based; details: time 8.0 day
[13] = target: T1, von Hippel-Lindau disease tumor suppressor/Histone-lysine N-methyltransferase EHMT2; test: PROTAC activity at G9a/VHL in human 22Rv1 cells assessed as induction of G9a degradation at 1 uM pretreated with VHL-1 for 2 hrs followed by compound administration and measured after 24 hrs by Western blot analysis; assay type: cell-based
Target sequence in this assay (P40337 whole entry partner): as the sequence (P40337 whole entry partner) above
Target sequence in this assay (Q96KQ7 2-1210 limits assumed): as the sequence (Q96KQ7 2-1210 limits assumed) above

[14] = target: T2, von Hippel-Lindau disease tumor suppressor/Histone-lysine N-methyltransferase EHMT1; test: PROTAC activity at GLP/VHL in human 22Rv1 cells assessed as effect on VHL level at 3 uM incubated for 24 hrs by RT-qPCR analysis; assay type: cell-based
[15] = target: Histone-lysine N-methyltransferase, H3 lysine-79 specific (Homo sapiens) (UniProt Q8TEK3); test: Inhibition of DOT1L (unknown origin) at 10 uM relative to control
[16] = target: Histone-lysine N-methyltransferase EZH1 (Homo sapiens) (UniProt Q92800); test: Inhibition of EZH1 (unknown origin) at 10 uM relative to control
Chain of Histone-lysine N-methyltransferase EZH1 (Homo sapiens) (Q92800 whole entry): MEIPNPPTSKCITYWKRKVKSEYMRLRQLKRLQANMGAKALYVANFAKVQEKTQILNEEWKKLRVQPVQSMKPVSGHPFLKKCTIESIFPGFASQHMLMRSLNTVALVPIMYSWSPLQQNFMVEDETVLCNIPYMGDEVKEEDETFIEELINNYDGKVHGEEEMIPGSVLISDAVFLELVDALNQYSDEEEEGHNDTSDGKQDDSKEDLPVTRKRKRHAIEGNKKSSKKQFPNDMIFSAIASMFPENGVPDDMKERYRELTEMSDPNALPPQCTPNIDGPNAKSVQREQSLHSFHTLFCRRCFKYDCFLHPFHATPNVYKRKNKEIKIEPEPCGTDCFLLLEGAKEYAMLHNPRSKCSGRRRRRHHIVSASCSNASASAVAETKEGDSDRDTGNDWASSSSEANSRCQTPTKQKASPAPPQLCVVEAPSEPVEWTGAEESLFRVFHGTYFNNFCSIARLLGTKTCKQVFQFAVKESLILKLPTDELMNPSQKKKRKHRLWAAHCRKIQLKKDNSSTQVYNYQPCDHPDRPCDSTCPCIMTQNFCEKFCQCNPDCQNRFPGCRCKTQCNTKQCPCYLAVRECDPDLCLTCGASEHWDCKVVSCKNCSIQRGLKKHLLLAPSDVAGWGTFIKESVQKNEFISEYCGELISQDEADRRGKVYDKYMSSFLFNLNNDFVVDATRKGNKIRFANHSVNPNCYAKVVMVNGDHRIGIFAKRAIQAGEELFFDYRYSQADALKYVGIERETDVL

[17] = target: Histone-lysine N-methyltransferase EZH2 (Homo sapiens) (UniProt Q15910); test: Inhibition of EZH2 (unknown origin) at 10 uM relative to control
[18] = target: Histone-lysine N-methyltransferase 2A (Homo sapiens) (UniProt Q03164); test: Inhibition of MLL1 (unknown origin) at 10 uM relative to control
[19] = target: Histone-lysine N-methyltransferase NSD3 (Homo sapiens) (UniProt Q9BZ95); test: Inhibition of NSD3 (unknown origin) at 10 uM relative to control
[20] = target: Protein arginine N-methyltransferase 3 (Homo sapiens) (UniProt O60678); test: Inhibition of PRMT3 (unknown origin) at 10 uM relative to control
[21] = target: PRMT5/MEP50 complex (Homo sapiens) (UniProt O14744+Q9BQA1); test: Inhibition of PRMT5/MEP50 (unknown origin) at 10 uM relative to control; assay type: protein-complex assay
[22] = target: Protein arginine N-methyltransferase 6 (Homo sapiens) (UniProt Q96LA8); test: Inhibition of PRMT6 (unknown origin) at 10 uM relative to control
[23] = target: Protein arginine N-methyltransferase 7 (Homo sapiens) (UniProt Q9NVM4); test: Inhibition of PRMT7 (unknown origin) at 10 uM relative to control
[24] = target: Protein arginine N-methyltransferase 8 (Homo sapiens) (UniProt Q9NR22); test: Inhibition of PRMT8 (unknown origin) at 10 uM relative to control
Chain of Protein arginine N-methyltransferase 8 (Homo sapiens) (Q9NR22 2-394 limits assumed): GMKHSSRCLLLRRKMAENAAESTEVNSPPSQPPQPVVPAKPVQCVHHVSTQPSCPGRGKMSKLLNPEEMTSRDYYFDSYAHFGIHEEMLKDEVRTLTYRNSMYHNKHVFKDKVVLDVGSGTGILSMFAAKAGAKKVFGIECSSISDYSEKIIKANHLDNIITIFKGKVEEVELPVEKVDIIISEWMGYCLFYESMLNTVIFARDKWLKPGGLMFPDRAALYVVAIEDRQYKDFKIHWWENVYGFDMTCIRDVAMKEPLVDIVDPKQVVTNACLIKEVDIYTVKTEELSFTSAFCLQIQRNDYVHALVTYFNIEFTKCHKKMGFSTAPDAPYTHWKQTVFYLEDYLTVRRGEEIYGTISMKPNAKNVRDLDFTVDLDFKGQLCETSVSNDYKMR

[25] = target: Histone-lysine N-methyltransferase SETD1B (Homo sapiens) (UniProt Q9UPS6); test: Inhibition of SET1b (unknown origin) at 10 uM relative to control
[26] = target: Histone-lysine N-methyltransferase SETD7 (Homo sapiens) (UniProt Q8WTS6); test: Inhibition of SET7/9 (unknown origin) at 10 uM relative to control
Chain of Histone-lysine N-methyltransferase SETD7 (Homo sapiens) (Q8WTS6 whole entry): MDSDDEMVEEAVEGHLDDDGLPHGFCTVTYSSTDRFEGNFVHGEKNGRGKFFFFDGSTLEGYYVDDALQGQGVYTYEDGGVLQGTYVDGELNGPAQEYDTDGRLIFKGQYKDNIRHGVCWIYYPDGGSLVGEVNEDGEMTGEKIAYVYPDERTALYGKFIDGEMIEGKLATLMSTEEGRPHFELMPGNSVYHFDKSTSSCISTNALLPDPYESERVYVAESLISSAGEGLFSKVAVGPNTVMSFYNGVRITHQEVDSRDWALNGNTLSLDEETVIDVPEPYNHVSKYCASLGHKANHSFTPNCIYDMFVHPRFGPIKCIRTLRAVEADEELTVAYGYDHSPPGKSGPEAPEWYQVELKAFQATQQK

[27] = target: Histone-lysine N-methyltransferase SUV39H2 (Homo sapiens) (UniProt Q9H5I1); test: Inhibition of SUV39H2 (unknown origin) at 10 uM relative to control
[28] = system: CWR22R; test: Effect on EZH2 level in human 22Rv1 cells at 3 uM incubated for 24 hrs by Western blot analysis; assay type: functional, cell-based
[29] = system: CWR22R; test: Effect on PRMT7 level in human 22Rv1 cells at 3 uM incubated for 24 hrs by Western blot analysis; assay type: functional, cell-based
[30] = system: CWR22R; test: Effect on SET7/9 level in human 22Rv1 cells at 3 uM incubated for 24 hrs by Western blot analysis; assay type: functional, cell-based
[31] = target: T2, von Hippel-Lindau disease tumor suppressor/Histone-lysine N-methyltransferase EHMT1; test: PROTAC activity at GLP/VHL in human K562 cells assessed as induction of GLP degradation at 3 uM incubated for 24 hrs by Western blot analysis; assay type: cell-based
[32] = system: K562; test: Cytotoxicity against human K562 cells assessed as growth inhibition incubated for 7 days; assay type: functional; details: K562, 168 h, time 7 day
[33] = target: T1, von Hippel-Lindau disease tumor suppressor/Histone-lysine N-methyltransferase EHMT2; test: PROTAC activity at G9a/VHL in human NCI-H1299 cells assessed as induction of G9a degradation at 3 uM incubated for 24 hrs by Western blot analysis; assay type: cell-based
Target sequence in this assay (P40337 whole entry partner): as the sequence (P40337 whole entry partner) above
Target sequence in this assay (Q96KQ7 2-1210 limits assumed): as the sequence (Q96KQ7 2-1210 limits assumed) above

[34] = target: T2, von Hippel-Lindau disease tumor suppressor/Histone-lysine N-methyltransferase EHMT1; test: PROTAC activity at GLP/VHL in human NCI-H1299 cells assessed as induction of GLP degradation at 3 uM incubated for 24 hrs by Western blot analysis; assay type: cell-based
[35] = system: NCI-H1299; test: Cytotoxicity against human NCI-H1299 cells assessed as growth inhibition incubated for 8 days; assay type: functional; details: NCI-H1299, 192 h, time 8 day
[36] = Cmax in C57BL6 mouse plasma at 50 mg/kg, ip measured at 0.5 hrs by LC-MS/MS analysis; assay type: ADME, organism-based
[37] = Cmax in C57BL6 mouse plasma at 50 mg/kg, ip measured at 8 hrs by LC-MS/MS analysis; assay type: ADME, organism-based

COc1cc2c(NC3CCN(CCCC(=O)NCCCCCCCCCCCC(=O)N[C@H](C(=O)N4C[C@H](O)C[C@H]4C(=O)NCc4ccc(-c5scnc5C)cc4)C(C)(C)C)CC3)nc(N3CCC(F)(F)CC3)nc2cc1OCCCN1CCCC1
Non-Toxic: Activity [6]
5 µM: GI50 [35]
27 µM: Cmax [36]
0.274 µM: DC50 [7]
> 50%: inhibition [15] | inhibition [16] | inhibition [17] | inhibition [18] | inhibition [19] | inhibition [20] | inhibition [21] | inhibition [22] | inhibition [23] | inhibition [24] | inhibition [25] | inhibition [26] | inhibition [27]
100%: Activity [9]
> 5 µM: Cmax [37]
> 99%: Emax [1] | Emax [3]
active: Activity [4] | Activity [5] | Activity [8] | Activity [10] | Activity [11] | inhibition [12] | Activity [13] | Activity [14] | Activity [28] | Activity [29] | Activity [30] | Activity [31] | Activity [33] | Activity [34]
2 µM: GI50 [32]
49%: Emax [2]
